Data set [1] has as its system definitive endoderm derived from human ESCs. Put plainly: Differentiation of chemically induced DE to hepatocyte-like cells. As to conditions: DE induction with compound, then HGF/FGF4, then HGF/FGF4/OSM/Dex. Type of data set: cell-based. The source says:
(A) Schematic representation of the differentiation protocol. (B) Images of differentiated cells at stage II (d14) and stage III (d25). (C) RT-PCR expression analyses of RNA prepared from cells at the indicated stages of differentiation, using primers specific to the genes indicated. RNA extracted from human liver was used as a positive control. β-ACTIN was used as a housekeeping gene. (D) Expression of FoxA2 and the early hepatic markers HNF4α, AFP and TTR in cells at stage II and stage III of differentiation were analyzed by immunofluorescence. Scale bar represents 50 μm. (E) Media (1 μl) from stage III (d25) cells, conditioned for 48 hours, and from a media alone (MA) control were analysed by immunoblotting with an antibody to AFP. Purified AFP and media conditioned from HUH7 cells were run as controls. (F) ELISA assay for human Albumin from stage III (d25) media. (G) Differentiation of BIO-derived DE cells to hepatocyte-like cells. SHEF3 ESCs were treated with 2 μM BIO for 5 days to induce differentiation to the DE. ESCs were then cultured under hepatic induction and maturation conditions as outlined in the Experimental Procedures and FIG. 5A. Expression of FOXA2 and the early hepatic markers HNF4α, AFP and TTR in ESCs at stage II and stage III of differentiation were analyzed by immunofluorescence. Scale bar represents 50 μm. […]

The subject of data set [2] is Human ESCs [SHEF3]. The data set can be described thus: Colony morphology, RT-PCR and Western blot of OCT4/NANOG in treated human ESCs. The class given is cell-based. On the procedure:
Human ESCs [SHEF3] were treated with the indicated concentrations of BIO or compound 1M or left untreated as a control and cultured for 7 days. (A) Images show typical colonies formed following the indicated treatments. The scale bars represent 1 mm. (B) Histogram plots of ESCs analysed by flow cytometry following immunostaining with antibodies against the pluripotency markers Tra-1-60 or SSEA4. (C) RNA was extracted from the cells and RT-PCR analyses performed using primers specific to the pluripotency genes OCT4 and NANOG and to the house-keeping gene β-ACTIN. (D) Western blot analysis was performed on protein extracted from the cells and immunoblotted with antibodies specific to Oct4. Blots were stripped and reprobed with anti-Gapdh antibodies to assess equal loading. (E) Compound 1O also induces differentiation of human ESCs. SHEF3 cells were treated with the indicated concentration of 1O for 7 days. Images show typical colony morphology. (F) Histogram plots of ESCs analysed by flow cytometry following staining with Tra-1-60 and SSEA4 antibodies. Analysis of percent positive cells and mean fluorescent intensity are indicated on the plots. (G) RT PCR analysis for the expression of OCT4 and NANOG. Bands for each of the genes were from the same gel with intervening samples removed. (H) Western blot analysis of OCT4 protein expression. Proteins bands were from the same immunoblot with intervening samples removed.
SHEF1 and SHEF3 human ESCs were obtained from the UKSCB and cultured as outlined in their protocols. Briefly, ESCs were maintained on mitomycin C-inactivated mouse embryonic fibroblast (MEF) feeder layers in KnockOut Dulbecco's modified Eagle's medium (KO DMEM) (Invitrogen) supplemented with 20% (vol/vol) KO serum replacement (KOSR; Invitrogen), 1 mM non-essential amino acids (NEAA; Invitrogen), 1 mM glutamine (Invitrogen), 0.1 mM 2-mercaptoethanol (BioRad), penicillin/streptomycin, and 4 ng/ml recombinant human FGF2 (Peprotech). Cultures were passage using 1 mg/ml collagenase at a ratio of 1:8 to 1:12 every 7 days. Cultures were transferred to a feeder-free, chemically defined culture system on ESC-qualified Matrigel® (BD) coated plates in mTeSR1® (Stem Cell Technologies) media according to Stem Cell Technologies' protocol.
Total RNA was isolated and purified using TRIzol Reagent (Invitrogen), following the manufacturer's instructions. All RNA samples were treated with DNase I (Ambion) before cDNA synthesis to eliminate any contaminating genomic DNA. RNA (1 μg) was reverse transcribed into cDNA using Oligo(dT)15 (Promega) and SuperScript II (Invitrogen). Gene-specific PCR was carried out using primers and annealing temperatures outlined in Table 2.
Cell lysates (20 μg) were prepared, separated by SDS-PAGE and transferred to nitrocellulose as described previously (Welham et al., 1994). Immunoblotting was carried out using primary antibodies at the following dilutions: 1:5,000 anti-Oct4 (Santa Cruz Biotechnology; sc-9081); 1:2000 anti-GAPDH (sc-20357); 1:10,000 anti-phospho (Ser33/37/Thr41) β-catenin (Cell signalling Technology; CST 9561); 1:1000 anti-β-catenin (CST 9562). Anti-rabbit antibodies conjugated to horseradish peroxidise (DAKO) were used at 1:10,000 and blots were developed using ECL Advance (GE Healthcare) or ChemiGlow (Alpha Innotech) according to manufacturer's directions. Images were captured and analysed using the ImageQuant RT ECL system (GE Healthcare). Blots were stripped and reprobed as described previously (Welham et al., 1994).
Background: A western blot detects proteins with antibodies after separation by electrophoresis.

Regarding `O=C1NC(=O)C2=C1c1cn(c3ccccc13)CCOCCOCCOCCOCCn1cc2c2ccccc21` [1M], the “Potential of compound-derived DE to form hepatocyte-like cells” value in data set [1] is “has the potential to differentiate into cells with hepatocyte characteristics”. For the same compound, in data set [2] (7 days treatment), the “OCT4 and NANOG gene expression (RT-PCR)” value was “loss of the pluripotency markers OCT4 and NANOG”; the “Oct4 protein expression (Western blot)” value was “loss of Oct4 protein expression”. In data set [2] (7 days, on MEFs in KO DMEM or on Matrigel in mTeSR1, 1M at 2 μM), the “Proliferation and differentiation of human ESCs (colony morphology)” value was “dramatic increase in proliferation and differentiation”.

Source of the values: patent publication US8815590B2, “Composition and method for differentiation of human embryonic stem cells” (Stem Cells for Safer Medicines Limited, priority 2009, dated 2014).
